{"source": "patent US20160286800A1", "about": "“STABILIZED COMPOSITION OF AN OXIDIZER AND METAL IONS, METHOD AND USE FOR IMPROVING DISEASE CONTROL, AND KIT FOR PREPARING SAID COMPOSITION” (AGRI-NÉO INC., priority 2013, published 2016)", "key": {"[1]": {"assay": "Peracetic acid concentration in aqueous solution over time, Lamotte peracetic acid test kit (code 7191-01)", "type": "physicochemical", "details": "with or without copper hydroxide / metal ions", "excerpt": "Those skilled in the art know how to monitor levels of peracetic in solutions. For instance, it is known to use iodometric titration (F. P. Greenspan and D. G. MacKellar, 1948, Anal. Chem., 20, 1061) or to use analytical test strips. Suitable test strips include those manufactured by Merck and which are currently available under two different formats (i.e. 5-50 ppm and 100-500 ppm). These test strips provide a rapid, convenient semi-quantitative method of determining peracetic levels. LaMotte Company (Chestertown, Md., USA) also provides a test kit (code 7191-01) for titrating peracetic acid.\nPeracetic acid was generated by admixing with water a powdered product which is hereinafter called ATO CIDE. More particularly, 2 grams of the powdered product identified hereinafter under the name ATO CIDE was added and mixed for 10 minutes with in 1 liter of water, to give a solution of 2 g/L ATO CIDE. ATO CIDE is a powdered mixture consisting of:\n(§1) Then, 100 mL of the above-mentioned solution of peracetic acid (i.e ATO CIDE solution) was mixed for 5 minutes with 0.1 g of a powdered product sold under the trademark PARASOL WG®. PARASOL WG® is a powdered product comprising 50% elemental copper as copper hydroxide.\nas §1, with “Then, a” for “Then,”, “0.2 mL of a complexing agent (PBTCA) until the sequestering agent was dissolved completely, and then” for “with”, “WG® is added and dissolved with the resulting mixture.” for “WG®.”\nThen mixtures were prepared as per below table:\n(§2) Then mixtures #1 to #5 were prepared as per below table:\n(§3) Mixtures were prepared at room temperature (around 20° C.) as per the following table: […]"}, "[2]": {"test_system": "strawberry", "assay": "Phytotoxicity to strawberry (statement)", "details": "applied individually to strawberry; stated, no data shown"}, "[3]": {"assay": "pH of the mixtures over time", "type": "physicochemical", "details": "Trt 1 pH (0.1%)", "experimental": "as §2, §3"}, "[4]": {"test_system": "strawberry", "details": "in vivo"}}, "note": "“Also recorded” adds a separate entry of the source. Where two headings read alike, the source gives them in different places."}
{"compound": "OB(O)O", "note": "[Boric acid, boric acid]", "values": [{"measurement": "effect on stability of peracetic acid (conclusion in words)", "setting": "[1]", "value": "stabilizes PERACETIC ACID in solution for a longer period of time; also recorded: not as good as phosphoric acid in chelating copper hydroxide"}]}
{"compound": "O=P(O)(O)O", "note": "[Phosphoric acid, phosphoric acid]", "values": [{"measurement": "effect on stability of peracetic acid (conclusion in words)", "setting": "[1]", "value": "prevented peracetic acid from being decomposed"}, {"measurement": "effect on stability of peracetic acid (conclusion in words)", "setting": "[1]; listed as phosphoric acid", "value": "prevented the decomposition of peracetic acid by metal ions"}]}
{"compound": "OP(O)O", "note": "[Phosphorous acid, phosphorous acid]", "values": [{"measurement": "effect on stability of peracetic acid (conclusion in words)", "setting": "[1]", "value": "stabilizes the peracetic acid very well"}, {"measurement": "phytotoxicity", "setting": "[2]", "value": "phytotoxic"}]}
{"compound": "NS(=O)(=O)O", "note": "[Sulfamic acid, sulfamic acid]", "values": [{"measurement": "effect on stability of peracetic acid (conclusion in words)", "setting": "[1]", "value": "prevented peracetic acid from being decomposed"}]}
{"compound": "OP(O)O", "note": "[Trt 1, Phosphorous acid]", "values": [{"measurement": "pH", "setting": "[3]; Example 15, 24 hrs, Trt 2 pH (0.2%)", "value": 2.53}, {"measurement": "pH", "setting": "[3]; Example 15, 48 hrs, Trt 2 pH (0.2%)", "value": 2.80}, {"measurement": "pH", "setting": "[3]; Example 15, 120 hrs, Trt 2 pH (0.2%)", "value": 2.90}, {"measurement": "pH", "setting": "[3]; Example 15, 148 hrs, Trt 2 pH (0.2%)", "value": 2.85}, {"measurement": "pH", "setting": "[3]; Example 15, 172 hrs, Trt 2 pH (0.2%)", "value": 2.80}, {"measurement": "pH", "setting": "[3]; Example 15, room temperature, Time zero (Trt 3-5: after the additions)", "value": 2.80}]}
{"compound": "copper", "values": [{"measurement": "phytotoxicity", "setting": "[4]", "value": "phytotoxic"}]}
